Assay results taken from patent US20130224761A1, “NON COVALENT MOLECULAR STRUCTURE, COMPRISING A PORPHYRIN BASED GLYCOCONJUGATE, DEVICE COMPRISING THE SAME AND ITS USE FOR DETECTION OF LECTIN” (CENTRE NATIONAL DE LA RECHERCHE SCIENTIFIQUE (CNRS), priority 2011, published 2013).

Legend:
ConA lectin [1] = assay: AFM imaging of SWNT functionalized with glycoconjugate before and after ConA lectin attachment; assay type: binding, Canavalia ensiformis; conditions: 5 μM Ca2+
Experimental: Atomic force microscope (AFM) images (FIG. 4) were obtained using scanning probe microscope (Veeco Nanoscope II) in a tapping mode configuration. Samples were prepared by spin coating of bare or functionalized SWNTs onto a freshly cleaved sheet of mica. The images were taken after 30 min of drying in ambient and subsequent washing with PBS solution (for functionalized SWNTs).
FIG. 4a depicts a small bundle of bare SWNTs with diameter of 3.4 nm. After non covalent functionalization with glycoconjugate “5b” (non covalent molecular structure “SWNT-5b”), SWNT bundles show diameters of 11.7-14.6 nm (FIG. 4b). Con A lectin binding to the functionalized “SWNT-5b” nanostructures (“SWNT-5b-ConA”) increases SWNT diameters to 18.3 nm (FIG. 4c).

ConA lectin [2] = assay: SWNT-FET electronic detection of glycoconjugate-lectin interaction (G vs Vg); assay type: binding, Canavalia ensiformis; conditions: SWNT-FET functionalized with glycoconjugate; 5 μM lectin, 5 μM Ca2+, PBS pH 7
Description: ConA (25 kDa) is a plant lectin from Canavalia ensiformis that is specific for α-D-mannose and is available commercially from Sigma and used without further purification.

ConA lectin [3] = assay: CCG-FET electronic detection of glycoconjugate-lectin interaction (G vs Vg); assay type: binding, Canavalia ensiformis; conditions: CCG-FET functionalized with glycoconjugate; 2 μM lectin, 5 μM Ca2+, PBS
Experimental: (§1) FIG. 6 illustrates the electronic detection of carbohydrate-lectin interactions.
(§2) For each glycoconjugate functionalized device, non-specific lectins were tested first, followed by washing procedures and measuring of specific lectin. The final transfer characteristics were tested again in the configuration mentioned above.

PA-IL lectin [4] = biological target: T1, PA-IL lectin (Pseudomonas aeruginosa, UniProt Q05097); assay: as above; assay type: binding; conditions: CCG-FET functionalized with glycoconjugate; 2 μM lectin, 5 μM Ca2+, PBS
T1 construct: made in house; host or cells: Escherichia coli
T1 sequence (Q05097 whole entry): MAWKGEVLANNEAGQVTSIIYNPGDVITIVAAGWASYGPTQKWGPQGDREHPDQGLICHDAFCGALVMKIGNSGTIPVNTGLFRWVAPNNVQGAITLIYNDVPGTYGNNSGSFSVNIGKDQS
Experimental: as §1, §2

PA-IIL lectin = conditions: SWNT-FET functionalized with glycoconjugate; 5 μM lectin per FIG. 5 legend (1 μM elsewhere in the source), 5 μM Ca2+, PBS pH 7
Experimental: (§3) Lectin attachment was performed in the presence of 5 μM Ca^2+.
(§4) The electrical performance of each such obtained “SWNT-FET” device was investigated in electrolyte gated FET device configuration. […] A small fluid (1 mL) chamber was placed over the SWNT-FET device to control the liquid environment using phosphate buffer solution (PBS) at pH 7. A liquid gate potential (−0.75V to 0.75 V) with respect to the grounded drain electrode was applied using Ag/AgCl (3 M KCl) reference electrode submerged in the electrolyte. The drain current of the device was measured at a constant source-drain voltage of 50 mV.
Surface functionalization of SWNT FET device with each porphyrin based glycoconjugate respectively named “5a”, “5b” and “5c” was performed by incubating them in their 5 μM solution in deionized water for 2 hours followed by rinsing with deionized water. This step was followed by incubating the chips for 30 minutes in different concentrations of lectin solutions prepared in PBS with 5 μM CaCl2 and latter rinsing with PBS solution.

PA-IL lectin [5] = biological target: T1, PA-IL lectin; assay: SWNT-FET electronic detection of glycoconjugate-lectin interaction (G vs Vg); assay type: binding; conditions: SWNT-FET functionalized with glycoconjugate; 5 μM lectin, 5 μM Ca2+, PBS pH 7
Experimental: as §3, §4
This step was followed by incubating the chips for 30 minutes in different concentrations of lectin solutions prepared in PBS with 5 μM CaCl2 and latter rinsing with PBS solution.

**Q.** “5,10,15,20-Tetrakis(4′-{1-[(α-D-mannopyranosyloxy)-3,6-dioxaoct-8-yl]-1,2,3-triazol-4-yl}methyleneoxyphenyl)-Zn-(II)-porphyrin [5b]” was tested. Which “binding of Con A lectin to glycoconjugate on the surface of SWNTs (AFM)” value (ConA lectin [1]) did it give?
**A.** Its value is “specific binding”.

**Q.** What about the “SWNT diameter after Con A lectin binding to functionalized SWNT (AFM)” value (ConA lectin [1]; SWNT-5b-ConA, 11.7-14.6 nm before lectin, bare SWNT bundle 3.4 nm) of the same compound?
**A.** Its value is 18.3 nm.

**Q.** What about the “change in G vs Vg curve (threshold voltage, conductance) on treating with ConA lectin” value (“change in G vs Vg curve … with ConA lectin” below) (ConA lectin [2]) of the same compound?
**A.** The value was “positive interaction”.

**Q.** And the “change in G vs Vg curve … with ConA lectin” value (ConA lectin [3])?
**A.** Its value is “negative shift in threshold voltage and further decrease in conductance”.

**Q.** And the “change in G vs Vg curve (threshold voltage, conductance) on treating with PA-IL lectin” value (“change in G vs Vg curve … with PA-IL lectin” below) (PA-IL lectin [4])?
**A.** Its value is “no significant change”.

**Q.** What about the “change in G vs Vg curve (threshold voltage, conductance) on treating with PA-IIL lectin” value (PA-IIL lectin) of the same compound?
**A.** Its value is “no significant change”.

**Q.** For “5,10,15,20-Tetrakis(4′-{1-[(β-D-galactopyranosyloxy)-3,6-dioxaoct-8-yl]-1,2,3-triazol-4-yl}methyleneoxyphenyl)-Zn-(II)-porphyrin [5a]”, which “change in G vs Vg curve … with PA-IL lectin” value (PA-IL lectin [5]) is on record?
**A.** Its value is “selective response”.

**Q.** And the “change in G vs Vg curve … with ConA lectin” value (ConA lectin [3])?
**A.** The value was “no significant change”.

**Q.** What about the “change in G vs Vg curve … with PA-IL lectin” value (PA-IL lectin [4]) of the same compound?
**A.** The value was “negative shift in threshold voltage and further decrease in conductance”.

**Q.** For `C[C@@H]1O[C@@H](OCCOCCOCCn2cc(COc3ccc(-c4c5nc(c(-c6ccc(OCc7cn(CCOCCOCCO[C@@H]8O[C@@H](C)[C@@H](O)[C@@H](O)[C@@H]8O)nn7)cc6)c6ccc([n-]6)c(-c6ccc(OCc7cn(CCOCCOCCO[C@@H]8O[C@@H](C)[C@@H](O)[C@@H](O)[C@@H]8O)nn7)cc6)c6nc(c(-c7ccc(OCc8cn(CCOCCOCCO[C@@H]9O[C@@H](C)[C@@H](O)[C@@H](O)[C@@H]9O)nn8)cc7)c7ccc4[n-]7)C=C6)C=C5)cc3)nn2)[C@@H](O)[C@H](O)[C@@H]1O.[Zn+2]` [5c, 5,10,15,20-Tetrakis(4′-{1-[(α-L-fucopyranosyloxy)-3,6-dioxaoct-8-yl]-1,2,3-triazol-4-yl}methyleneoxyphenyl)-Zn-(II)-porphyrin], which “change in G vs Vg curve (threshold voltage, conductance) on treating with PA-IIL lectin” value (PA-IIL lectin) is on record?
**A.** The value was “positive interactions”.
